Test results taken from US5098921A, “Nitro-substituted aromatic or hetero-aromatic compounds for use in cancer treatment” (National Research Development Corporation, priority 1987, dated 1992).
Like-named read-outs stand apart in the source and are kept apart here.

Columns and labels:
[1] = Toxicity to cells, 3 hours at 37° C., in air and in N2; type: cell-based; conditions: air; concentration required for a surviving fraction of 10^-1; 3 hours at 37° C.; full growth medium (bicarbonate); read-out: CAir
Method: (§1) ^(a) Toxicity is 3 hours at 37° C. Concentrations are those
(§2) required for a surviving fraction of 10^-1. Drugs were made up in ful
(§3) growth medium (buffered with bicarbonate) just before addition to cells.

cells [2] = experiment: as above; type: cell-based; conditions: for CC90: read-out: CN2; for CAir/CN2: ratio of toxic concentrations, air to N2, 180 min
Method: as §1, §2, §3

KHT tumour cells = experiment: Survival of KHT tumour cells after sensitiser i.p. plus 10 Gy X-rays (KHT tumour implanted subcutaneously in C3H mice); type: in vivo
Method: In Table 2 comparison is made with 1-(2-nitro-1-imidazolyl)-3-(1-aziridino)-2-propanol (RSU-1069). All compounds were administered in phosphate buffered saline (PBS) at pH 7.4 except RB-6145 which was administered in PBS at pH 5.4.
The maximum does used was the maximum tolerated dose (MTD).

KHT tumour = experiment: In vivo sensitisation, scored against RSU1069 and MISO; set-up: species or system C3H mice; key to the marks not given beside the values; conditions: scoring system relative to RSU1069 and MISO
Method: (§4) (a) C3H mice in which the KHT tumour had been implanted subcutaneously were administered RB-6145 (Example 2) intraperitoneally before treatment with radiation. The time before such treatment at which the drug was administered was such that maximum enhancement was effected. The results of such treatment are set out in Table 1 with comparison to misonidazole (MISO), etanidazole (SR 2508) and pimonidazole (Ro 03-8799). In Table 2 comparison is made with 1-(2-nitro-1-imidazolyl)-3-(1-aziridino)-2-propanol (RSU-1069). All compounds were administered in phosphate buffered saline (PBS) at pH 7.4 except RB-6145 which was administered in PBS at pH 5.4.

cells [3] = experiment: Sensitisation of cells, C1.6 (drugs made up in PBS at pH 7.4); type: cell-based; conditions: drugs made up in PBS at pH 7.4 just before addition to cells
Description: ^(b) Drugs made up in PBS at pH 7.4 just before addition to cells.

[4] = Maximum tolerated dose (MTD); type: in vivo, C3H mice; conditions: for MTD: mouse, in vivo, ip, intraperitoneal, b203: maximum dose used was the MTD, read-out: maximum tolerated dose (MTD) = maximum dose used in Table 2
Method: as §4
The surviving fraction for 10 Gy alone is 3×10^-2. The maximum does used was the maximum tolerated dose (MTD).

[5] = N2, concentration required for a surviving fraction of 10^-1, 3 hours at 37° C., full growth medium (bicarbonate)
[6] = Table 1, sensitiser at a dose of 200 mg/kg and 10 Gy X-rays, NONE = 1.0
[7] = Table 1, sensitiser at a dose of 200 mg/kg and 10 Gy X-rays, intraperitoneal

| SMILES | CC90 at 3 h [1] [µM] | CAir/CN2 (cells [2]) | in vivo sensitisation (KHT tumour) | CC90 (cells [2]; 3 h) [µM] | EC (enhancement ratio 1.6) (cells [3]) [µM] | enhancement ratio (KHT tumour cells; [6]) | surviving fraction (KHT tumour cells; [7]) | other results |
| --- | --- | --- | --- | --- | --- | --- | --- | --- |
| O=[N+]([O-])c1nccn1CC(O)CNCCF (stereo not drawn) [RB-6159, 1-(2-Nitro-1-imidazolyl)-3-(2-fluoroethylamino)-2-propanol] | 35000 | 14 | – | – | – | – | – | CC90 (cells [2]; [5]): 2500 µM |
| COCC(O)Cn1ccnc1[N+](=O)[O-] (stereo not drawn) [MISO, misonidazole] | – | – | – | – | – | – | – | enhancement ratio (KHT tumour cells; mouse, in vivo, 200 mg/kg): 1.5; surviving fraction (KHT tumour cells; mouse, in vivo, ip, 200 mg/kg): 1.2 × 10^-2 |
| O=[N+]([O-])c1nccn1CC(O)CNCCCl (stereo not drawn) [RB-6144, 1-(2-Nitro-1-imidazolyl)-3-(2-chloroethylamino)-2-propanol] | 5000 | 15 | ++ | 350 | 250 | – | – | – |
| O=[N+]([O-])c1nccn1CC(O)CN1CC1 (stereo not drawn) [RSU-1069, 1-(2-nitro-1-imidazolyl)-3-(1-aziridino)-2-propanol] | – | – | – | – | – | – | – | surviving fraction (KHT tumour cells; 8 mg/kg): 7.6 × 10^-3; surviving fraction (KHT tumour cells; 30 mg/kg): 4.0 × 10^-3; surviving fraction (KHT tumour cells; 50 mg/kg): 3.2 × 10^-3; surviving fraction (KHT tumour cells; 80 mg/kg): 1.6 × 10^-3; MTD [4]: 80 mg/kg |
| O=C(Cn1ccnc1[N+](=O)[O-])NCCO [SR 2508, etanidazole] | – | – | – | – | – | 1.6 | 1.1 × 10^-2 | – |
| O=[N+]([O-])c1nccn1CC(O)CNCCO (stereo not drawn) [RSU-1137, 1-(2-nitro-1-imidazolyl)-3-(2-hydroxyethylamino)-2-propanol, reference compound] | 70000 | 20 | ++ | – | 450 | – | – | CC90 (cells [2]; [5]): 3500 µM |
| O=[N+]([O-])c1nccn1CC(O)CNCCI (stereo not drawn) [RB-6146, 1-(2-Nitro-1-imidazolyl)-3-(2-iodoethylamino)-2-propanol] | 2400 | 30 | – | 80 | 300 | – | – | – |
| O=[N+]([O-])c1nccn1CC(O)CN1CCCCC1 (stereo not drawn) [Ro03-8799, pimonidazole] | – | – | – | – | – | 1.0 | 3 × 10^-2 | – |
| O=[N+]([O-])c1nccn1CC(O)CNCCBr (stereo not drawn) [RB-6145, 1-(2-Nitro-1-imidazolyl)-3-(2-bromoethylamino)-2-propanol] | 2300 | 25 | ++++ | 90 | 150 | 2.7 | 1.8 × 10^-3 | dose-for-dose sensitisation compared with RSU-1069 (KHT tumour cells; 10 Gy X-rays): on a dose-for-dose basis it is the same as RSU-1069 as a sensitiser; surviving fraction (KHT tumour cells; Table 2, RB-6145 0.13 mmol kg^-1 (50 mg/kg) and 10 Gy X-rays): 7.6 × 10^-3; surviving fraction (KHT tumour cells; Table 2, RB-6145 0.27 mmol kg^-1 (100 mg/kg) and 10 Gy X-rays): 5.2 × 10^-3; surviving fraction (KHT tumour cells; Table 2, RB-6145 0.53 mmol kg^-1 (200 mg/kg) and 10 Gy X-rays): 1.8 × 10^-3; surviving fraction (KHT tumour cells; Table 2, RB-6145 0.80 mmol kg^-1 (300 mg/kg) and 10 Gy X-rays, 10 Gy alone 3×10^-2): 1.4 × 10^-3; doses that can be used compared with RSU-1069 ([4]; Table 2): Much higher doses of RB-6145 can be used; MTD [4]: 300 mg/kg |
